Data taken from publication PMC11951083, “Highly Specific Miniaturized Fluorescent Monoacylglycerol Lipase Probes Enable Translational Research” (Journal of the American Chemical Society, 2025).

Legend:
COX2(h) = target: T1, COX2(h) (Homo sapiens, UniProt P35354); assay: COX2(h); conditions: read-out: Inhibition COX2(h)
T1 sequence (P35354 18-604): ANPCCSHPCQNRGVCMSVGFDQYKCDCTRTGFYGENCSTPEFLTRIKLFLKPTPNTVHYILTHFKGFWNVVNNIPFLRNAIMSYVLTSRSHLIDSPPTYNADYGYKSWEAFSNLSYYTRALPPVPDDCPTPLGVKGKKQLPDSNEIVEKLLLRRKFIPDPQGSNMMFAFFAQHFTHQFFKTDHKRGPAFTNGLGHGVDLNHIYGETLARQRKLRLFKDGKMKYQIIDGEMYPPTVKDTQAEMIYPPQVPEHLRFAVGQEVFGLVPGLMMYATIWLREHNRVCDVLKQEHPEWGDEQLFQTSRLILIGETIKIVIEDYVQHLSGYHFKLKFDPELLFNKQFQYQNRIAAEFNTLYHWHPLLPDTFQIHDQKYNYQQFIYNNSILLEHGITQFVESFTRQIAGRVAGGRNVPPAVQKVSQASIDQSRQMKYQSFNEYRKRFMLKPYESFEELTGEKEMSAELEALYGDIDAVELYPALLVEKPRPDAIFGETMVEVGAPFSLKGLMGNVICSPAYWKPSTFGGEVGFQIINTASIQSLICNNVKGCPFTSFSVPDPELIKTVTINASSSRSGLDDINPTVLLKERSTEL

HIV-1 protease = assay: HIV-1 protease; conditions: 10 µM
Abl kinase (h) = Abl kinase (h) (Homo sapiens, UniProt P00519); assay: Abl kinase (h); conditions: read-out: Inhibition Abl kinase (h)
PCP = PCP (antagonist radioligand); conditions: 10 µM
H3 (h) = H3 (h) (Homo sapiens, UniProt Q9Y5N1); assay: H3 (h) (agonist radioligand); conditions: read-out: Inhibition H3 (h) (agonist radioligand)
beta1 (h) = beta1 (h) (Homo sapiens, UniProt P08588); assay: beta1 (h) (agonist radioligand); conditions: read-out: Inhibition beta1 (h) (agonist radioligand)
M1 (h) = target: T2, M1 (h) (Homo sapiens, UniProt P11229); assay: M1 (h) (antagonist radioligand); conditions: read-out: Inhibition M1 (h) (antagonist radioligand)
T2 sequence (P11229 1-460): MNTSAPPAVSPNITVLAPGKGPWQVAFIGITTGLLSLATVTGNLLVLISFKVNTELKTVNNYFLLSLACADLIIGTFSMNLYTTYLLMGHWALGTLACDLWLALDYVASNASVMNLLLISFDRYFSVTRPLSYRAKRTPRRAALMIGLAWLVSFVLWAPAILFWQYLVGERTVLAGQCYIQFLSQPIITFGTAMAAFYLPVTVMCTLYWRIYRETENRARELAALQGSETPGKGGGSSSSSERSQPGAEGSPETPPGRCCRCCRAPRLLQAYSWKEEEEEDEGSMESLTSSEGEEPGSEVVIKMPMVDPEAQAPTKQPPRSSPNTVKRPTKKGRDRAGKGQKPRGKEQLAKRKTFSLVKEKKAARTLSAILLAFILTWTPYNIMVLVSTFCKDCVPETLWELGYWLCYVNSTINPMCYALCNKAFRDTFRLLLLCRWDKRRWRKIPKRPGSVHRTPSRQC

M2 (h) = target: T3, M2 (h) (Homo sapiens, UniProt P08172); assay: M2 (h) (antagonist radioligand); conditions: read-out: Inhibition M2 (h) (antagonist radioligand)
T3 sequence (P08172 1-466): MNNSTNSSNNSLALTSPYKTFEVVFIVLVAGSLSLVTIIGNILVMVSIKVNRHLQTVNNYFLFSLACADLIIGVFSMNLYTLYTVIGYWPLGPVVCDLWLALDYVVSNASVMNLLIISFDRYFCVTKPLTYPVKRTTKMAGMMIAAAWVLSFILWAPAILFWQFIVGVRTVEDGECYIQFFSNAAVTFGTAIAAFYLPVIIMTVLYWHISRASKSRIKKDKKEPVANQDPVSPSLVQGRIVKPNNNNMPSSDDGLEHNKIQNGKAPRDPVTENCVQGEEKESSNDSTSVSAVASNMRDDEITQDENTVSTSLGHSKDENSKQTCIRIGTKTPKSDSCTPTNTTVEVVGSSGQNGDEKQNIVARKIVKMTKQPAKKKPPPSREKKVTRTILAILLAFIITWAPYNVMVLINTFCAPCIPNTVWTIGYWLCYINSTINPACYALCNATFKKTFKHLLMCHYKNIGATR

mu (MOP) (h) = mu (MOP) (h) (Homo sapiens, UniProt P35372); assay: mu (MOP) (h) (agonist radioligand); conditions: read-out: Inhibition mu (MOP) (h) (agonist radioligand)
PPARgamma (h) = target: T4, PPARgamma (h) (Homo sapiens, UniProt P37231); assay: PPARgamma (h) (agonist radioligand); conditions: read-out: Inhibition PPARgamma (h) (agonist radioligand)
T4 sequence (P37231 1-505): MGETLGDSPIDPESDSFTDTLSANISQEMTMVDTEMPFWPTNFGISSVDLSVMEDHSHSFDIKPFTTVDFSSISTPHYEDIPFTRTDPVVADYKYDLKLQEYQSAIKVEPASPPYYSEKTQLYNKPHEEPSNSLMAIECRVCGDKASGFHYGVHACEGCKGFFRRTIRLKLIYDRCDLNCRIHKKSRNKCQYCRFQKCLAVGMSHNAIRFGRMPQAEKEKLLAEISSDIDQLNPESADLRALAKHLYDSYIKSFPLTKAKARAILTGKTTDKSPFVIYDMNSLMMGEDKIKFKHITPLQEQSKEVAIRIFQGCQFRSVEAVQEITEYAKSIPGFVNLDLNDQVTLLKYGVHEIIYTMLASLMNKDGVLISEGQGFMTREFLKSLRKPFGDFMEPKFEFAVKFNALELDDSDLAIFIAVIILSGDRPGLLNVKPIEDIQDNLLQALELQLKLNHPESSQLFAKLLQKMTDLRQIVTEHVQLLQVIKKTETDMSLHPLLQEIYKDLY

[1] = tested on: 50 clinically relevant and safety-related off-targets; assay: CEREP panel of 50 off-targets (overall); conditions: for selectivity profile in off-target panel: 10 μM, panel of 50 unrelated off-target receptors and enzymes; for S(90): fraction of targets with more than 90% inhibition at 10 µM; for S(50): fraction of targets with more than 50% inhibition at 10 µM
N muscle-type (h) = N muscle-type (h) (antagonist radioligand); conditions: 10 µM
[2] = tested on: Ca2+ channel (L, diltiazem site); assay: Ca2+ channel (L, diltiazem site) (antagonist radioligand); conditions: 10 µM

beta1 (h), sequence (P08588 whole entry): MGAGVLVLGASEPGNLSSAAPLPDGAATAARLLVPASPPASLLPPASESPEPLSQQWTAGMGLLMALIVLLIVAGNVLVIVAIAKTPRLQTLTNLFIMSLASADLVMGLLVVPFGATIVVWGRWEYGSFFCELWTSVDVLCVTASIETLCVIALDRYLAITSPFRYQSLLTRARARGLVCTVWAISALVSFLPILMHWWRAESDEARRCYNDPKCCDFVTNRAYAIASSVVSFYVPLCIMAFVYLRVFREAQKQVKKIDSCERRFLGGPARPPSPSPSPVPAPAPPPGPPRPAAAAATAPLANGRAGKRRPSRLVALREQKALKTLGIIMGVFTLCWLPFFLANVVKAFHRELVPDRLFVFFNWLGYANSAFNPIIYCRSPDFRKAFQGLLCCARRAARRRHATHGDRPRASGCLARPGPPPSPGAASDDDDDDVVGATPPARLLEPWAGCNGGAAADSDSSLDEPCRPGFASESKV
H3 (h), sequence (Q9Y5N1 whole entry): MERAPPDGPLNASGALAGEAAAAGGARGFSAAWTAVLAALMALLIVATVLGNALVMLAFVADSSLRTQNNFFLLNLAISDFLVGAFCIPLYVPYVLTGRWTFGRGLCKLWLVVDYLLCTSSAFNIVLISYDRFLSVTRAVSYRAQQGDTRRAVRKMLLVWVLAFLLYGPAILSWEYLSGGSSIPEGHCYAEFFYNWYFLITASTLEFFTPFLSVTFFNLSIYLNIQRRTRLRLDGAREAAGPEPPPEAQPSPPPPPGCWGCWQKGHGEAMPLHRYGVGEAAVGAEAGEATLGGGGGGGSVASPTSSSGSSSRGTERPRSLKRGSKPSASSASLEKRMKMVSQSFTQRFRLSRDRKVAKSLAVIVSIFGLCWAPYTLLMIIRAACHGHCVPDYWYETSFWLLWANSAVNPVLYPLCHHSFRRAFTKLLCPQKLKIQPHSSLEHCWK
Abl kinase (h), sequence (P00519 whole entry): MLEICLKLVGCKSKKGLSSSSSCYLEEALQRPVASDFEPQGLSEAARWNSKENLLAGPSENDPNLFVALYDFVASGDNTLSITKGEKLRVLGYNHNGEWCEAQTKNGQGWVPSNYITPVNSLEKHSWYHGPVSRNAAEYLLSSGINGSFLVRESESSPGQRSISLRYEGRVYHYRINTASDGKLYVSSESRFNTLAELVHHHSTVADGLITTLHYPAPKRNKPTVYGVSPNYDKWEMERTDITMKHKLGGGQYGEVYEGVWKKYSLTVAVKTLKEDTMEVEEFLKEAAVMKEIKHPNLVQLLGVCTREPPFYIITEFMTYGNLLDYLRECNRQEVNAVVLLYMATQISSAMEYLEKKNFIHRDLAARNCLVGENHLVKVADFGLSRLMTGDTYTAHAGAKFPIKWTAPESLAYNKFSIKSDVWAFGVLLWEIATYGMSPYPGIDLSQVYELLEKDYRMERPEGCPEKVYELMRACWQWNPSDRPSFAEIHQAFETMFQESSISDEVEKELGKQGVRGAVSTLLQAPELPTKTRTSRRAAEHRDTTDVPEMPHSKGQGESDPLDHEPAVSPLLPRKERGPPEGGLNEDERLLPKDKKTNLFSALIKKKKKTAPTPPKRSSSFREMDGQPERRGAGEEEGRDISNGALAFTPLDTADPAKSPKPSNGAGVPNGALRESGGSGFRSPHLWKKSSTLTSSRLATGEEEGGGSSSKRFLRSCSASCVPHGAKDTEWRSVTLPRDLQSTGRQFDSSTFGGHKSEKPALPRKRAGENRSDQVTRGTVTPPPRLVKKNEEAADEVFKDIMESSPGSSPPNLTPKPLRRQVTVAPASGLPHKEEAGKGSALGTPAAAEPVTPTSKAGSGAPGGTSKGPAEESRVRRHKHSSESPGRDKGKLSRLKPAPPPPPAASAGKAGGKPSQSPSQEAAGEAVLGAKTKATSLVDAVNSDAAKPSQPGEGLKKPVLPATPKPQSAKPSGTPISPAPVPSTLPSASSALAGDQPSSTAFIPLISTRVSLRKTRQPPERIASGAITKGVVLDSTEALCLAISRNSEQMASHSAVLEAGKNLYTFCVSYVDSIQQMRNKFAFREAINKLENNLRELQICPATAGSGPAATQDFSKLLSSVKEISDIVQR
mu (MOP) (h), sequence (P35372 whole entry): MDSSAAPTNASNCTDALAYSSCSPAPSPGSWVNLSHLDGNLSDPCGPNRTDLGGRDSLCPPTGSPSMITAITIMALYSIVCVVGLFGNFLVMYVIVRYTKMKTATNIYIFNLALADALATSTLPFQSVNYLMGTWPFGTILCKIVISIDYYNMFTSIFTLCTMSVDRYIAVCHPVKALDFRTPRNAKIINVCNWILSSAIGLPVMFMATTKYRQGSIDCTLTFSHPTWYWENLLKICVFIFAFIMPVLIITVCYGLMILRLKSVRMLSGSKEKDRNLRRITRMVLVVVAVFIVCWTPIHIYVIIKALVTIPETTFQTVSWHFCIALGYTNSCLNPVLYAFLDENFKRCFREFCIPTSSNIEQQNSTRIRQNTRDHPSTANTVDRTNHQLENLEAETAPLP

Structure (SMILES)	inhibition at 10 µM (COX2(h)) [%]	Inhibition HIV-1 protease (HIV-1 protease)	inhibition at 10 µM (Abl kinase (h)) [%]	Inhibition PCP (antagonist radioligand) (PCP)	inhibition at 10 µM (H3 (h)) [%]	inhibition at 10 µM (beta1 (h)) [%]	inhibition at 10 µM (M1 (h)) [%]	inhibition at 10 µM (M2 (h)) [%]	inhibition at 10 µM (mu (MOP) (h)) [%]	inhibition at 10 µM (PPARgamma (h)) [%]	selectivity profile in off-target panel [1]	S(90) [1] [%]	Inhibition N muscle-type (h) (antagonist radioligand) (N muscle-type (h))	Inhibition Ca2+ channel (L, diltiazem site) (antagonist radioligand) [2]	S(50) [1] [%]
O=C(O[C@H](CO)C(F)(F)F)N1CC2(CC(CC3=C4C=CC=[N+]4[B-](F)(F)n4cccc43)C2)C1 [Compound 1]	45.5	10,30%	-1.9	6,90%	5.2	-3.3	33.5	35.1	4	74.3	very clean selectivity profile	0.0	-11,30%	20,60%	–
O=C(OC(C(F)(F)F)C(F)(F)F)N1CC2(CC(CC3=C4C=CC=[N+]4[B-](F)(F)n4cccc43)C2)C1 [Compound 2]	31.9	-1,90%	-10.5	-5,50%	-7.2	-1.7	26	22.2	-0.4	56.3	very clean selectivity profile	0.0	-0,30%	-14,00%	4.0
O=C(OC(C(F)(F)F)C(F)(F)F)N1CC2(CC(CC3=C4C=CC(c5ccc[nH]5)=[N+]4[B-](F)(F)n4cccc43)C2)C1 [Compound 2a]	49.5	8,30%	-2.9	-18,80%	7.3	-3.3	-0.7	-13.1	7.6	20	very clean selectivity profile	0.0	-9,40%	9,70%	0.0
O=C1CO[C@H]2CCN(C(=O)N3CC4(CC(CC5=C6C=CC(c7ccc[nH]7)=[N+]6[B-](F)(F)n6cccc65)C4)C3)C[C@H]2N1 [Compound 4a]	48.9	23,80%	-53.1	3,60%	1.8	-1.2	4	-4.9	11	20	very clean selectivity profile	0.0	-1,70%	6,20%	0.0
O=C(N1CC2(CC(CC3=C4C=CC=[N+]4[B-](F)(F)n4cccc43)C2)C1)N1CC2(CC(n3cnc(C4CC4)n3)C2)C1 [Compound 5]	23.8	5,20%	25.6	-14,20%	-3.7	0.6	14.7	33.2	8.5	5.6	very clean selectivity profile	0.0	17,00%	1,70%	–
